The record followed here is patent publication US5416119A, “Alkylaminoalkyl-terminated sulfide/sulfonyl-containing cycloalkyl-alanine amino-diol compounds for treatment of hypertension” (G. D. Searle & Co., priority 1993, dated 1995).

One may read the IC50 as the point on the concentration scale where inhibition reaches its midpoint.

Each structure is given as a SMILES string.

For this assay, the target named is T1, Human Renin (Homo sapiens, UniProt P00797).
T1 construct: purchased National Institute for Biological Standards, London
T1 sequence (P00797 67-406): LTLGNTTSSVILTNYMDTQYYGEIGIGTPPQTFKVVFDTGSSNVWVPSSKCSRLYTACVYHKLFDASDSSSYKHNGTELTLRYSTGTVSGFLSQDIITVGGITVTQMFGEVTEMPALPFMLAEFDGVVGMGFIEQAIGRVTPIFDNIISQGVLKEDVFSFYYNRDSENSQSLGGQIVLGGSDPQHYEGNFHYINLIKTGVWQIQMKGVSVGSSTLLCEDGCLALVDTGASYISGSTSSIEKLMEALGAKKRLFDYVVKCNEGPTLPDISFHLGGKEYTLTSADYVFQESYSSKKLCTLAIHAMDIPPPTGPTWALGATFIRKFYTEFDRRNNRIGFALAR
The assay can be described thus: Human renin inhibition in vitro (angiotensin I produced, determined by radioimmunoassay). The assay is classed as biochemical. As to conditions: human plasma, pH 7.4, 37° C., two hours. Here is the method:
Compounds of Formula I were evaluated as inhibitors of human renin in an in vitro assay, as follows: This human renin inhibition test has been previously described in detail [Papaioannou et al., Clinical and Experimental Hypertension, A7(9), 1243-1257 (1985)]. Human renin was obtained from the National Institute for Biological Standards, London. An incubation mixture was prepared containing the following components: in a total volume of 0.25 mL: 100 mM Tris-acetate buffer at pH 7.4, 25×10^-6 Goldblatt units of renin, 0.05 mL of plasma from human volunteers taking oral contraceptives, 6.0 mM Na-EDTA, 2.4 mM phenylmethyl sulfonyl fluoride, 1.5 mM 8-hydroxyquinoline, 0.4 mg/mL bovine serum albumin (BSA), and 0.024 mg/mL neomycin sulfate. This mixture was incubated for two hours at 37° C. in the presence or absence of renin inhibitors. The produced angiotensin I was determined by radioimmunoassay (New England Nuclear kit). Test compounds to be assayed were dissolved in DMSO and diluted with 100 mM Tris-acetate buffer at pH 7.4 containing 0.5% BSA to the appropriate concentration. The final concentration of organic solvent in the reaction mixture was less than 1%. Control incubations at 37° C. were used to correct for effects of organic solvent on renin activity.

With `CC(C)C[C@H](O)[C@H](O)[C@H](CC1CCCCC1)NC(=O)C(CC1CC1)NC(=O)C(Cc1ccccc1)CS(=O)(=O)CCN(C)C` (stereo partly drawn) [Example 1, N-[2-[[1S,1R*-(cyclohexylmethyl)-2S*,3R* -dihydroxy-5-methylhexyl]amino]-1R*-(cyclopropylmethyl)-2-oxoethyl]-α-[[[2-(dimethylamino)ethyl]sulfonyl]methyl]benzenepropanamide], the IC50 was 1.3 nM.
